Two molecules from publication PMC8219695 (Nature Communications, 2021) can be followed below.

In one assay the target is T1, mMOR (Mus musculus, UniProt P42866).
T1 construct: signal peptide (heterologous, not specified) (N); expressed in transfected cells; pcDNA3.1(+) construct made in house
Nature of the assay: BRET-based Nb33 recruitment assay at mMOR. The class given is cell-based. The settings on record: for Nb33 BRET assay at mMOR, response: single replicates, source data Fig 7a, listed as C11-F-7OH (22).

The target in the next assay is T2, hMOR (Homo sapiens, UniProt P35372).
T2 construct: expressed in transfected cells; plasmid a gift from Dr. Nevin Lambert
T2 sequence (P35372 whole entry): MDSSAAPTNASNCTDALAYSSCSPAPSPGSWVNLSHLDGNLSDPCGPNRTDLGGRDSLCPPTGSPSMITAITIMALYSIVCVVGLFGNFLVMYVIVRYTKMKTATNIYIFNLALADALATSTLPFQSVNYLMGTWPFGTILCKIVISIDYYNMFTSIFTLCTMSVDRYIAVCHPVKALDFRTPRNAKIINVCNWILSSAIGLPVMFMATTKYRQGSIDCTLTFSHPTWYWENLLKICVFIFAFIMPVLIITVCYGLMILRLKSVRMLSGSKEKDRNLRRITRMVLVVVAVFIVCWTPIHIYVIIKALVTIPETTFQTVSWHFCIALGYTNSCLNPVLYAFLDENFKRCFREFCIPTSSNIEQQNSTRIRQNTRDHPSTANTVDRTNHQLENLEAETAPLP
Nature of the assay: cell-based. The settings on record: read-out: Emax hMOR.

The next assay relates to C57BL/6 mice. Nature of the assay: Tail-flick dose-response in C57BL/6 mice. The class given is in vivo, mouse. The settings on record: for mouse tail-flick assay (%MPE): 15 minute time point, individual animals. The procedure:
CD1 mice (n = 10), at peak analgesic time point. […] Dose–response curves of 22 (s.c.), in the tail-flick assay was evaluated 15 min post drug administration in WT, C57 mice (n = 8) and MOR KO mice (n = 5). Each point represents mean ± SEM.
(§1) For analgesic dose–response experiments, male CD1 mice (20–32 g), 6–8 weeks were obtained from Charles River Laboratories and male C57BL/6 mice (22–30 g), 8–15 weeks were obtained from Jackson Lab (Bar Harbor, ME) and housed 5 mice per cage in a vivarium following an IACUC-approved protocol. For male C57BL/6 mice temperature was kept constant at 22 ± 2 °C, and relative humidity was maintained at 50 ± 5%. For male CD1 mice (20–32 g) the temperature was in the range of 20–26 °C and relative humidity maintained within the range of 30–70%. Mice were given access to food and tap water ad libitum. All mice used throughout the manuscript were opioid naïve. All mice were maintained on a 12 h light/dark cycle with Purina rodent chow and water available ad libitum and housed in groups of five until testing.
Tail-flick antinociception was determined using the radiant heat tail-flick technique using an Ugo Basile model 37360 instrument as previously described[95],[96]. The intensity was set to achieve a baseline between 2 and 3 s. Baseline latencies were determined before experimental treatments for all mice. Tail-flick antinociception was assessed as an increase in baseline latency, with a maximal 15 s latency to minimize damage to the tail. Data were analyzed as percent maximal effect, % MPE, and was calculated according to the formula: % MPE = [(observed latency – baseline latency)/(maximal latency – baseline latency)] × 100. Compounds were injected s.c. and antinociception was assessed at the peak effect. Mice were tested for analgesia with cumulative subcutaneous doses of the drug until the mouse can withstand the maximal latency. Once the mouse reached the maximal latency, the mouse was no longer given higher doses. […] In vivo experiments were evaluated using GraphPad Prism 8, San Diego, CA as described above.
96-well plate (no. 60050; Perkin Elmer; Waltham, MA, USA). At time zero, the luciferase substrate coelenterazine H (5 μM) was added to each well. Ligands were added after 5 min, then BRET signal was measured 10 min later. BRET measurements were performed using a PHERAstar FS plate reader (BMG Labtech, Cary, NC, USA). The BRET signal was calculated as the ratio of the light emitted by the mVenus […]
Dose–response curves were fit using a three-parameter logistic equation in GraphPad Prism 8 (Graphpad Software, La Jolla, CA, USA).
All experiments were repeated in at least three independent trials each with triplicate determinations.
as §1, with “dose-response” for “dose–response”, “g),6-8” for “g), 6–8”, “20-26” for “20–26”, “30-70%.” for “30–70%.”
For analgesic testing in knockout animals, wild-type, male C57BL/6 mice (22–33 g), 10-12 weeks were purchased from the Jackson Lab (Bar Harbor, ME). These mice were kept at a constant temperature of 22 ± 2 °C, and relative humidity was maintained at 40-50%. Exon-1/Exon-11 MOR-1 KO mice on a C57 background were bred in the Pintar laboratory at Rutgers University. All mice were maintained on a 12- […]

The next assay addresses hDOR (Homo sapiens, UniProt P41143). Nature of the assay: CAMYEL BRET antagonism assay at hDOR (inhibition of DPDPE). Particulars: for Antagonist activity at the hDOR (raw signal): individual replicates, Supplementary Figure 9A source data. The class given is cell-based.
For another assay, the target named is T3, rKOR (Rattus norvegicus, UniProt P34975).
T3 construct: expressed in transfected cells
T3 sequence (P34975 whole entry): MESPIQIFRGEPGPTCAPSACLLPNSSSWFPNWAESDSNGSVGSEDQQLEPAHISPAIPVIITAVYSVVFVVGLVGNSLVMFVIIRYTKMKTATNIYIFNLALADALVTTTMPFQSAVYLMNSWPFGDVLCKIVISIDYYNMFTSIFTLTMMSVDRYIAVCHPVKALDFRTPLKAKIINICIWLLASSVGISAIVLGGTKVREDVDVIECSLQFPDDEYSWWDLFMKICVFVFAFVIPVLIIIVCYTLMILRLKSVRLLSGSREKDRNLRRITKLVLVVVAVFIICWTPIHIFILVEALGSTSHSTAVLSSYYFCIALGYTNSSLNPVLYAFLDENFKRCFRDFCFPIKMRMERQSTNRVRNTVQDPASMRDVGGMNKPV
Nature of the assay: CAMYEL BRET antagonism assay at rKOR (inhibition of U-50,488). It is filed as cell-based. Particulars: inhibition of reference agonist U50,488 (EC80).

“And” between values parts separate entries of the source, which are not always exact repeats. Equal values may be shown once.

Sequence of hDOR (P41143 whole entry): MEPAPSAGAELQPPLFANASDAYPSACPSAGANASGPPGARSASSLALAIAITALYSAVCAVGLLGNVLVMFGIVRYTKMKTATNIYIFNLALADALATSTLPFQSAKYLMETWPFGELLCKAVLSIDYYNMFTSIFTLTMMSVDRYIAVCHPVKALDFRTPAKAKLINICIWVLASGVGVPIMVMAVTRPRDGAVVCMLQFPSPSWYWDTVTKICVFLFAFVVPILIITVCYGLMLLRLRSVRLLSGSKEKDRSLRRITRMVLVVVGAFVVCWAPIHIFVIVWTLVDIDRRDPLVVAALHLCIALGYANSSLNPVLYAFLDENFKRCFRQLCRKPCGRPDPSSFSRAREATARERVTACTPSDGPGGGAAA
T1 sequence (P42866 whole entry): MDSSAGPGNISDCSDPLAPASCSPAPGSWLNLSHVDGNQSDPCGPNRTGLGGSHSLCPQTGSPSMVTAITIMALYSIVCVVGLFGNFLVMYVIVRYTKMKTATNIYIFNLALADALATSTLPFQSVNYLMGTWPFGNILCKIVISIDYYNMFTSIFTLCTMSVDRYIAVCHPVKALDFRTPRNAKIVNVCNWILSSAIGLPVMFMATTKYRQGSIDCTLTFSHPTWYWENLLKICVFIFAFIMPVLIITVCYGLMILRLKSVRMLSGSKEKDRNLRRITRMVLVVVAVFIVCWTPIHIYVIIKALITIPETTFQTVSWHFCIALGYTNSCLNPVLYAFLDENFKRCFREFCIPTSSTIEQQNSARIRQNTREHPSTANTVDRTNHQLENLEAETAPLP

On to `CC[C@@H]1CN2CC[C@@]3(O)C(=Nc4cc(F)cc(OC)c43)[C@@H]2C[C@@H]1/C(=C\OC)C(=O)OC` [11-F-7OH (22), 11-Fluoro-7-hydroxymitragynine], for which the “Nb33 BRET assay at mMOR, response” value at mMOR (Log[drug] (M) -5) was 6.583 and -1.77 and -4.813 and -2.626 and -1.32 and 4.487 and 18.3783 and 26.5383 and 5.598 and 5.585 and 0.2094 and 5.293; on mMOR (Log[drug] (M) -6), 0.6338 and 14.8405 and 14.4384 and 1.573 and -3.3849 and 2.324 and 3.469 and 13.567 and 11.5483 and 6.799 and 5.845 and 11.4048; on mMOR (Log[drug] (M) -7), 2.525 and -4.237 and 5.069 and -13.128 and 0.1228 and -1.54 and 7.378 and 4.077 and 0.2648 and 1.54 and -4.687 and 9.074; at mMOR (Log[drug] (M) -8), 0.2904 and 1.436 and 1.352 and 1.678 and 1.793 and -7.9215 and -6.277 and -6.486 and -0.06826 and 14.2168 and -0.06924 and 8.399; on mMOR (Log[drug] (M) -9), -2.727 and 5.58 and 0.2255 and 4.116 and 4.119 and -5.256 and -3.689 and -9.68 and 0.5281 and 3.825 and 2.847 and -6.097; at mMOR (Log[drug] (M) -10), 3.545 and 0.5186 and 8.52 and 1.379 and 2.542 and 3.339 and 3.8632 and -1.052 and 9.1269 and 14.9582 and 6.739 and 3.3642. Besides, the “Nb33 BRET assay at mMOR, response” value at mMOR (Log[drug] (M) -11) was 21.3407 and -2.769 and 15.6698 and -2.476 and 2.836 and -0.3605 and -4.304 and -16.5097 and 20.8133 and -2.923 and -1.5757 and 4.499. For the same molecule, the “Emax mMOR” value at mMOR (Nb33 BRET, relative to DAMGO) is given as “near the detection limit of the assay”. Further, the Emax at mMOR (read-out: Emax mMOR, Nb33 BRET, relative to DAMGO) is < 10%; at hMOR it was < 10%. The ED50 with C57BL/6 mice (Mus musculus, sc, 0.25 h, read-out: ED50 (95% CI) tail-flick, s.c., 15 min time point, C57BL/6 mice, n = 10) amounted to 0.18 mg/kg. In addition, the “mouse tail-flick assay (%MPE)” value in the assay on C57BL/6 mice (dose 0.1, s.c.) is 1.681 %MPE and 10.3175 %MPE and -0.885 %MPE and 20.8955 %MPE and 3.731 %MPE and 1.653 %MPE and 0.813 %MPE and 15.7895 %MPE and 6.383 %MPE and 0 %MPE; in the assay on C57BL/6 mice (dose 0.3, s.c.), 0.8403 %MPE and 3.1746 %MPE and -13.2743 %MPE and 18.6567 %MPE and 7.463 %MPE and 12.3967 %MPE and 9.7561 %MPE and 0 %MPE and 87.9433 %MPE and 12.2137 %MPE; in the assay with C57BL/6 mice (dose 1, s.c.), 68.0672 %MPE and 18.254 %MPE and 1.77 %MPE and 24.6269 %MPE and 3.731 %MPE and 5.785 %MPE and 8.943 %MPE and 18.0451 %MPE and 87.234 %MPE and 3.053 %MPE; with C57BL/6 mice (dose 3, s.c.), 18.4874 %MPE and 30.1587 %MPE and 45.1327 %MPE and 31.3433 %MPE and 5.97 %MPE and 7.438 %MPE and 17.8862 %MPE and 23.3083 %MPE and 30.4964 %MPE and 6.87 %MPE; in the assay with C57BL/6 mice (dose 10, s.c.), 6.723 %MPE and 21.4286 %MPE and -9.735 %MPE and 22.3881 %MPE and 14.9254 %MPE and 0 %MPE and 17.0732 %MPE and 28.5714 %MPE and 55.3192 %MPE and 12.9771 %MPE. For the same molecule, in the assay on C57BL/6 mice (mouse, in vivo, sc), the “analgesic efficacy (Emax)” value was found to be 21%.
`CC[C@@H]1CN2CC[C@@]3(O)C(=Nc4cc(Br)cc(OC)c43)[C@@H]2C[C@@H]1/C(=C\OC)C(=O)OC` [11-Br-7OH (24), 11-Br-7OH]: the “Antagonist activity at the hDOR (raw signal)” value is 0.02104 and 0.01573 and 0.009966 and -0.01593 and -0.01928 and -0.02427 and 0.02048 and 0.01948 and 0.01559 on hDOR (Log[drug] (M) -5, against EC80 DPDPE); 0.04515 and 0.04385 and 0.04449 and 0.03157 and 0.04067 and 0.05399 and 0.01786 and 0.03044 and 0.02432 at hDOR (Log[drug] (M) -6, against EC80 DPDPE); 0.1057 and 0.11 and 0.09817 and 0.09774 and 0.0895 and 0.09531 and 0.04711 and 0.02047 and 0.02787 on hDOR (Log[drug] (M) -7, against EC80 DPDPE); 0.1076 and 0.1055 and 0.1083 and 0.107 and 0.1014 and 0.09451 and 0.04651 and 0.03638 and 0.03747 on hDOR (Log[drug] (M) -8, against EC80 DPDPE); 0.1047 and 0.1019 and 0.1172 and 0.09234 and 0.1022 and 0.1004 and 0.02352 and 0.04174 and 0.03714 at hDOR (Log[drug] (M) -9, against EC80 DPDPE); 0.1014 and 0.1021 and 0.1072 and 0.1078 and 0.1042 and 0.1009 and 0.03392 and 0.02253 and 0.04348 on hDOR (Log[drug] (M) -10, against EC80 DPDPE). For the same molecule, the “Antagonist activity at the hDOR (raw signal)” value on hDOR (Log[drug] (M) -11, against EC80 DPDPE) was 0.122 and 0.117 and 0.1095 and 0.09539 and 0.09115 and 0.09894 and 0.04038 and 0.02714 and 0.0351. The “antagonism at hDOR” value on hDOR (inhibition of reference agonist DPDPE (EC80)) was “full inhibition”. For the same molecule, the “antagonism at rKOR” value on rKOR is “full inhibition”.
